The values that follow come from patent US12337042B2, “Structural optimization method to improve the theranostic performance of peptide receptor-targeted radionuclide therapy for cancers” (University of Iowa Research Foundation, priority 2020, dated 2025).

Data set [1] concerns the target T1, SSTR2-positive AR42J cells (Rattus norvegicus, UniProt P30680).
T1 construct: endogenous in cells; host or cells: AR42J rat pancreatic acinar cells
Kind of data set: ^125I-TOC competitive binding assay in AR42J cells. On the procedure: ^125I-TOC Competitive Binding Assay
TOC was labeled with iodine-125 (^125I) by conventional chloramine T method as described elsewhere (23). 1.0×10^5 AR42J rat pancreatic acinar cells were plated into poly-D-lysine-coated 24-well plates. […] The cells were then washed twice with ice-cold PBS and lysed with 0.5 N NaOH, and the radioactivity was measured via a gamma counter. The half maximal inhibitory concentration (IC50) was determined using GraphPad Prism V8.0.

Data set [2] is described as follows: ^212Pb-PSC-PEG2-TOC toxicity studies with escalating doses. The data set is classed as in vivo, CD-1 Elite (SOPF) male mice. From the text: FIG. 12A-12F. Dosimetry and toxicities of escalated doses (up to 150 μCi) of ^212Pb—PSC-PEG2-TOC in CD-1 Elite (SOPF) male mice. (A) Body weight change after the injection of ^212Pb-PSC-PEG2-TOC. […] (B) ^212Pb-PSC-PEG2-TOC biodistribution in CD-1 Elite (SOPF) male mice. ^212Pb is used for the study to include the impact of potential demetallation of ^212Pb and redistribution in bone marrow. (C) Estimated renal dose arising from the escalating doses of ^212Pb-PSC-PEG2-TOC based on the biodistribution in CD-1 Elite (SOPF) male mice. Organ level internal dose assessment (OLINDA) V2.1 was used for dose estimation in mice using 30 g mouse voxel phantom model. (D-E) The levels of renal toxicity markers arising from the escalating doses of ^212Pb-PSC-PEG2-TOC assessed by urine neutrophil gelatinase-associated lipocalin (uNGAL; D) at day 1 and day 3 post-administration and blood urea nitrogen (BUN; E) at 3 months post-administration.
^212Pb-PSC-PEG2-TOC Toxicity Studies
Escalating doses (0, 0.37, 1.85, 3.33, and 5.55 MBq or 0, 10, 50, 90, and 150 μCi) of ^212Pb-PSC-PEG2-TOC were administered to tumor-free CD-1 Elite (SOPF) male mice (n=4 for each group). Body weight was measured 2 times a week by 3 weeks post-injection and 1 time a week afterwards. Urine samples were collected (via metabolic case) at day 1 and day 3 post-administration to evaluate acute tubular toxicities in kidneys. […]

Where [3] appears, read: AR42J cells, 2 hours at 37° C., mean ± spread, read-out: IC50, competitive inhibition of ^125I-tyr^3-octreotide (^125I-TOC) binding.

Like-named read-outs stand apart in the source and are kept apart here.

T1 sequence (P30680 whole entry): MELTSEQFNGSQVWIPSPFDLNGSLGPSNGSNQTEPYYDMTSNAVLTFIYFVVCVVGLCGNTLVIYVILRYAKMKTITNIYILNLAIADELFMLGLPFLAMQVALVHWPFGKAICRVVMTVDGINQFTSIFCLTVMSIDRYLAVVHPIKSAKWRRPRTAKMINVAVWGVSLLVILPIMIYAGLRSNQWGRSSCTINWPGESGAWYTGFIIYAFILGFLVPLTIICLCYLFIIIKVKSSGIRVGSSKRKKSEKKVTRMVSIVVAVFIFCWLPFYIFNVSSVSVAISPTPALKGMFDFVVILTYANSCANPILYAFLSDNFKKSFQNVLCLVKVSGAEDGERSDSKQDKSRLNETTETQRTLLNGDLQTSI

For `C[C@@H](O)[C@@H]1NC(=O)[C@H](CCCCN)NC(=O)[C@@H](Cc2c[nH]c3ccccc23)NC(=O)[C@H](Cc2ccc(O)cc2)NC(=O)[C@@H](NC(=O)[C@@H](Cc2ccccc2)NC(=O)CCOCCOCCNC(=O)CN2CCN(CC(=O)O)CCN(CC(N)=O)CCN(CC(=O)O)CC2)CSSC[C@@H](C(=O)N[C@H](CO)[C@@H](C)O)NC1=O` [PSC-PEG2-TOC], the half-inhibitory concentration (IC50) – broadly, the point on the concentration scale where inhibition reaches its midpoint – in data set [1] (setting [3]) was found to be 5.3 ± 1.2 nM.

`C[C@@H](O)[C@@H]1NC(=O)[C@H](CCCCN)NC(=O)[C@@H](Cc2c[nH]c3ccccc23)NC(=O)[C@H](Cc2ccc(O)cc2)NC(=O)[C@@H](NC(=O)[C@@H](Cc2ccccc2)NC(=O)CN2CCN(CC(=O)O)CCN(CC(N)=O)CCN(CC(=O)O)CC2)CSSC[C@@H](C(=O)N[C@H](CO)[C@@H](C)O)NC1=O` [PSC-TOC]: the half-inhibitory concentration (IC50) in data set [1] (setting [3]) is 6.2 ± 1.1 nM.

As to `C[C@@H](O)[C@@H]1NC(=O)[C@H](CCCCN)NC(=O)[C@@H](Cc2c[nH]c3ccccc23)NC(=O)[C@H](Cc2ccc(O)cc2)NC(=O)[C@@H](NC(=O)[C@@H](Cc2ccccc2)NC(=O)CCOCCOCCNC(=O)CN2CCN(CC(=O)O)CCN(CC(N)=O)CCN(CC(=O)O)CC2)CSSC[C@@H](C(=O)N[C@H](CO)[C@@H](C)O)NC1=O` [^212Pb-PSC-PEG2-TOC, metal not drawn], in data set [2] (doses up to 150 μCi, week 1, 2, and 4 post-administration), the “hematologic toxicity by complete blood count (CBC)” value is given as “reversible hematologic toxicity”. Further, the “body weight change after injection” value in data set [2] (escalated doses up to 150 μCi, tumor-free mice) is “After an initial decrease in body weight in first days, the body weight of the treated mice increased gradually”.

In the case of `C[C@@H](O)[C@@H]1NC(=O)[C@H](CCCCN)NC(=O)[C@@H](Cc2c[nH]c3ccccc23)NC(=O)[C@H](Cc2ccc(O)cc2)NC(=O)[C@@H](NC(=O)[C@H](N)Cc2ccccc2)CSSC[C@@H](C(=O)N[C@H](CO)[C@@H](C)O)NC1=O` [TOC, Tyr^3-octreotide, reference compound], the concentration for half-maximal inhibition (IC50) in data set [1] stood at 3.1 ± 1.1 nM.

Take `C[C@@H](O)[C@@H]1NC(=O)[C@H](CCCCN)NC(=O)[C@@H](Cc2c[nH]c3ccccc23)NC(=O)[C@H](Cc2ccc(O)cc2)NC(=O)[C@@H](NC(=O)[C@@H](Cc2ccccc2)NC(=O)CCOCCOCCOCCOCCNC(=O)CN2CCN(CC(=O)O)CCN(CC(N)=O)CCN(CC(=O)O)CC2)CSSC[C@@H](C(=O)N[C@H](CO)[C@@H](C)O)NC1=O` [PSC-PEG4-TOC]: in data set [1] (setting [3]), the half-inhibitory concentration (IC50) is 9.4 ± 1.3 nM.
